The assay deals with platelets (platelet rich plasma). The assay is described as follows: Platelet adhesion assay (SEM imaging). The format is cell-based. From the text:
Platelet adhesion experiments were visualized by scanning electron microscope (SEM) imaging (FIG. 7).

These results are taken from patent US10000582B2, “Ethylsulfonated hyaluronic acid biopolymers and methods of use thereof” (The Regents of the University of California, priority 2013, dated 2018).

On to heparin, for which the “platelet aggregation on the material” value is listed as “no aggregation of platelets”.
